Consider twelve compounds from patent US8865664B2, “Hydrophobically enhanced aminoglycosides” (University of Manitoba, priority 2008, dated 2014).

Usually MIC stands for the smallest concentration in the dilution series that meets the test's criterion for growth inhibition.

In brackets after ≈: the same amount, converted by molar mass.

Test [1] concerns Gram-positive organisms (ATCC and CAN-ICU strains). Kind of test: MIC, Gram-positive organisms (compounds ending in A). In kind it is cell-based. The note with it: in words; Table 3 organisms. As to the method:
(§1) The minimum inhibitory concentrations (MIC) in μg/mL were determined using established methods (Clinical and Laboratory Standards Institute, 2006) and are shown in Table 3 (FIG. 17). Gentamicin, neomycin B and kanamycin A served as positive controls.

In test [2] the test system is Gram-negative organisms (ATCC and CAN-ICU strains). The test is described as follows: MIC, Gram-negative organisms (compounds ending in A). The conditions noted are these: in words; Table 3 organisms. In kind it is cell-based. As to the method: as §1
Test [3] has as its system methicillin-resistant S. aureus (MRSA) ATCC 33592. Kind of test: MIC, antibiotic susceptibility testing, MRSA. In kind it is cell-based, Staphylococcus aureus. The conditions noted are these: for fold enhancement against MRSA when compared to neomycin: vs neomycin. As to the method:
(§2) Standard reference antibiotic susceptibility testing methods (NCCLS[CLS] (Clinical and Laboratory Standards Institute, 2006)) agar or dilutional methods was used to assess the activity of all prepared antimicrobials. Compounds were tested against Gram-positive strains including S. aureus, methicillin-resistant S. aureus (MRSA), S. epidermidis, methicillin-resistant S. epidermidis (MRSE) and S. pneumoniae as well as Gram-negative strains E. coli, gentamycin resistant E. coli and P. aeruginosa. Gentamycin and neomycin served as positive controls. MIC values defined as the lowest concentration of antimicrobial agent which inhibits the development of visible growth after 24 h at 37° C. was determined.
as §1

The subject of another test is MRSA. The conditions noted are these: fatty acid against MRSA; cited from earlier work.
The subject of test [4] is MSSA (methicillin-susceptible S. aureus). The note with it: fatty acid against MSSA; cited from earlier work.
For test [5], the system named is Microorganisms from ATCC and CAN-ICU. Kind of test: MIC, all investigated bacteria (compounds ending in A). In kind it is cell-based. The note with it: in words; vs 4A. As to the method:
as §1

A further test deals with E. coli (ATCC 25922). The test is described as follows: MIC, E. coli (compounds 13-31). The note with it: in words. Type of test: cell-based. As to the method: as §2
In test [6] the test system is gentamycin resistant E. coli (ATCC 6174). The test is described as follows: MIC, gentamycin resistant E. coli (compounds 13-31). In kind it is cell-based. The note with it: in words. As to the method:
as §2

Test [7] relates to methicillin-resistant S. epidermidis (MRSE) (ATCC 14990). Kind of test: MIC, antibiotic susceptibility testing, MRSE (compounds 13-31). Type of test: cell-based, Staphylococcus epidermidis. The note with it: vs kanamycin A. As to the method:
as §2

Test [8] has as its system P. aeruginosa (ATCC 27853). The test is described as follows: MIC, P. aeruginosa (compounds 13-31). Type of test: cell-based, Pseudomonas aeruginosa. The note with it: in words; among neomycin-lipid conjugates. As to the method:
as §2

In the case of “1,3,2′,6′-Tetraammonium-4,5,3′,4′-tetra-O-phenylcarbamoyl-neamine-tetrafluoroacetate [Compound 17A]”, in test [1], the Gram-positive antibacterial activity entry was “reduced”. In test [2], the Gram-negative activity entry is on record as “higher”. Regarding “1,3,2′,6′,2′″,6″-Hexaammonium-5″-deoxy-5″-N-(hexadecanoyl)-neomycin hexakis(trifluoroacetate) [Compound 15]”, the “fold enhancement against MRSA when compared to neomycin” value in test [3] (MRSA) is 32 fold.

Take `CCCCCCCCCCCC(=O)O` [lauric acid]: the MIC (with MRSA; in [4]) was 400 µg/mL (≈ 2000 µM) in each case. Consider “1,3,6′,3″-Tetraammonium-5,2″,4″,6″,2′″,3′″,4′″-hepta-β-phenylcarbamoyl-6″-deoxy-kanamycin-tetrafluoroacetate [Compound 11A]”, for which the Gram-positive antibacterial activity result in test [1] was “reduced”. Besides, the Gram-negative activity entry in test [2] is listed as “poor”. In the case of “4,3′,4′,2″,5″3′″,4″-Hexa-O-phenylcarbamoyl-1,3,2′,6′,2′″,6′″-hexa-N-(guanidinyl)-5″-deoxy-neomycin-hexafluoroacetate [Compound 9A]”, in test [5], the “antibacterial activity when compared to 4A” value is listed as “slightly reduced”. As for `CCCCCC(=O)NCC1OC(OC2C(O)C(N)CC(N)C2OC2OC(CN)C(O)C(O)C2N)C(O)C1OC1OC(CN)C(O)C(O)C1N.O=C(O)C(F)(F)F.O=C(O)C(F)(F)F.O=C(O)C(F)(F)F.O=C(O)C(F)(F)F.O=C(O)C(F)(F)F.O=C(O)C(F)(F)F` (stereo not drawn) [Compound 13, 1,3,2′,6′,2′″,6″-Hexaammonium-5″-deoxy-5″-N-(hexanoyl)-neomycin hexakis(trifluoroacetate)], the “activity against E. coli relative to the C16- or C20-lipid conjugates” value in the test on E. coli (ATCC 25922) is “stronger activity”. Moreover, the “activity against gentamycin-resistant E. coli relative to the C16- or C20-lipid conjugates” value in test [6] was “stronger activity”. On to neomycin [reference compound], for which the MIC in test [3] (against MRSA, 24 h at 37° C.) was around 8 µg/mL. With `CCCCCCCCCCCCCCCC(=O)NCC1OC(OC2C(N)CC(N)C(OC3OC(CN)C(O)C(O)C3O)C2O)C(O)C(N)C1O.O=C(O)C(F)(F)F.O=C(O)C(F)(F)F.O=C(O)C(F)(F)F.O=C(O)C(F)(F)F` (stereo not drawn) [Compound 30, 1,3,6′,3″-Tetraammonium-6″-deoxy-6″-N-(hexadecanoyl)-kanamycin-tetrakis-(trifluoroacetate)], in [3] (MRSA, vs kanamycin A), the “fold enhancement in antimicrobial activity against MRSA when compared to unmodified kanamycin A” value worked out at 35 fold. In addition, the “fold enhancement in antimicrobial activity against MRSE when compared to unmodified kanamycin A” value in test [7] was 56 fold.

Take “3,6′,3″,1′″-Tetraammonium-5,2′,4′,2″,3″,4″-hexa-O-phenylcarbamoyl-6″-deoxy-amikacin-tetrafluoroacetate [Compound 20A]”: in test [1], the Gram-positive antibacterial activity result is given as “reduced”. In addition, the Gram-negative activity entry in test [2] was “poor”. In the same order, the values of “1,3,6′,3″-Tetraammonium-5,2′,4′,2″,3″,4″-hexa-O-phenylcarbamoyl-6″ hexadecanoyl-6″-deoxy-kanamycin-tetrafluoroacetate [Compound 14A]” are “poor” and “poor”. For the compound “1,3,2′,6′,2′″,6′″-Hexaammonium-6,3′,4′,2″,5″,4′″-hexa-β-phenylcarbamoyl-5″-hexadecanoyl-5″-deoxy-neomycin-hexafluoroacetate [Compound 7A]”, in [1], the Gram-positive antibacterial activity entry is recorded as “poor”. The Gram-negative activity entry in [2] is reported as “poor”. For “1,3,2′,6′,2′″,6″-Hexaammonium-5″-deoxy-5″-N-(nonadecanoyl)-neomycin hexakis(trifluoroacetate) [Compound 16]”, the “fold enhancement against MRSA when compared to neomycin” value in [3] (MRSA) is 32 fold. In addition, the “antimicrobial activity against P. aeruginosa” value in [8] is “optimal”.
